In patent US10219513B2, “Safening 4-amino-3-chloro-6-(4-chloro-2-fluoro-3-methoxyphenyl)-5-fluoropyridine-2-carboxylic acid compositions in Brassica species and methods of use thereof” (Dow AgroSciences LLC, priority 2016, dated 2019):

What was measured:
[1] = system: Brassica alboglabra (kale/Chinese kale, BRSAG); assay: Greenhouse postemergence application, visual injury after 20-22 d, BRSAG; conditions: for % Visual Injury Obs / Obs % visual injury: BRSAG
Experimental: (§1) Seeds of the desired test plant species were planted in Sun Gro MetroMix® 306 planting mixture, which typically has a pH of 6.0 to 6.8 and an organic matter content of about 30 percent, in plastic pots with a surface area of 103.2 square centimeters (cm^2). […] The plants were grown for 7-36 days (d) in a greenhouse with an approximate 14-hour (h) photoperiod which was maintained at about 23° C. during the day and 22° C. during the night. Nutrients and water were added on a regular basis and supplemental lighting was provided with overhead metal halide 1000-Watt lamps as necessary. The plants were employed for testing when they reached the second or third true leaf stage.
(§2) An aliquot of formulated benzyl 4-amino-3-chloro-6-(4-chloro-2-fluoro-3-methoxyphenyl)-5-fluoropyridine-2-carboxylate (florpyrauxifen-benzyl; 300 grams active ingredient per liter (g ai/L) suspension concentrate (SC)) was placed in a 25 mL glass vial and diluted in a volume of 1.25% (v/v) aqueous Agri-dex crop oil concentrated to obtain a stock solution. […] The concentrated stock solutions were diluted with an aqueous mixture of 1.25% v/v of aqueous Agri-dex crop oil concentrate to provide the appropriate application rates. Compound requirements are based upon a 12 milliliter (mL) application volume at a rate of 187 liters per hectare (L/ha). Stock solutions of the formulated materials were prepared following the same procedure. Spray solutions of the compound mixtures were prepared by adding the stock solutions to the appropriate amount of dilution solution to form a 12 mL spray solution. Formulated compounds were applied to the plant material with an overhead Mandel track sprayer equipped with 8002E nozzles calibrated to deliver 187 L/ha over an application area of 0.503 square meters (m^2) at a spray height of 18 inches (43 centimeters (cm)) above average plant canopy. Control plants were sprayed in the same manner with the solvent blank.
(§3) The treated plants and control plants were placed in a greenhouse as described above and watered by sub-irrigation to prevent wash-off of the test compounds. After 20-22 d, the condition of the test plants as compared with that of the control plants was determined visually and scored on a scale of 0 to 100 percent where 0 corresponds to no injury and 100 corresponds to complete kill. Colby's equation was used to determine the herbicidal effects expected from the mixtures.
(§4) Benzyl 4-amino-3-chloro-6-(4-chloro-2-fluoro-3-methoxyphenyl)-5-fluoropyridine-2-carboxylate (florpyrauxifen-benzyl, 300 g ai/L SC) was combined in two-, three-, and four-way mixtures with one or more of the following: clopyralid-olamine (as Lontrel™ 35A Herbicidal Concentrate), quinclorac (as Facet 75DF), isoxadifen-ethyl (100 g/L SC), cloquintocet-mexyl (120 g/L EC) or mefenpyr-diethyl (as mefenpyr-diethyl 15WP). The mixtures were applied to kale/Chinese kale (Brassica alboglabra, BRSAG), Juncea canola or brown mustard (Brassica juncea, BRSJU), rutabaga (Brassica napus var. napobrassica, BRSNA), all varieties of canola and oilseed rape (Brassica napus, BRSNN), Nexera™ canola (Brassica napus, BRSNN-NEX), winter oilseed rape (Brassica napus, BRSNW), Roundup Ready® canola (Brassica napus, RR-BRSNN), and turnip or Polish canola (Brassica rapa, BRSRR), and the phytotoxicity of the compositions was measured.
(§5) Colby's equation was used to determine the herbicidal effects expected from the mixtures evaluated in the described trials (Colby, S. R. Calculation of the synergistic and antagonistic response of herbicide combinations. Weeds 1967, 15, 20-22.).
(§6) The following equation was used to calculate the expected activity of mixtures containing two active ingredients, A and B: Expected=A+B−(A×B/100) • A=observed efficacy of active ingredient A at the same concentration as used in the mixture; • B=observed efficacy of active ingredient B at the same concentration as used in the mixture.

[2] = system: Brassica juncea (Juncea canola or brown mustard, BRSJU); assay: Greenhouse postemergence application, visual injury after 20-22 d, BRSJU; conditions: for % Visual Injury Obs / Obs % visual injury: BRSJU
Experimental: as §1, §2, §3, §4, §5, §6

[3] = system: Brassica napus (all varieties of canola and oilseed rape, BRSNN); assay: Greenhouse postemergence application, visual injury after 20-22 d, BRSNN; conditions: for % Visual Injury Obs / Obs % visual injury: BRSNN
Experimental: as §1, §2, §3, §4, §5, §6

[4] = system: Brassica napus (winter oilseed rape, BRSNW); assay: Greenhouse postemergence application, visual injury after 20-22 d, BRSNW; conditions: for % Visual Injury Obs / Obs % visual injury: BRSNW
Experimental: as §1, §2, §3, §4, §5, §6

[5] = system: Brassica napus (Roundup Ready canola, RR-BRSNN); assay: Greenhouse postemergence application, visual injury after 20-22 d, RR-BRSNN; conditions: for % Visual Injury Obs / Obs % visual injury: RR-BRSNN
Experimental: as §1, §2, §3, §4, §5, §6

[6] = postemergence application, greenhouse, application rate (g ai/ha) varies

O=C(O)c1c(Cl)ccc2cc(Cl)cnc12 [Quinclorac, 3,7-dichloro-8-quinolinecarboxylic acid]
0%: % Visual Injury Obs ([1]; 50 g ai/ha) | % Visual Injury Obs ([1]; 100 g ai/ha) | % Visual Injury Obs ([1]; 200 g ai/ha) | Obs % visual injury ([1]; partner alone 50 g ai/ha) | Obs % visual injury ([1]; partner alone 100 g ai/ha) | Obs % visual injury ([1]; partner alone 200 g ai/ha) | % Visual Injury BRSAG Obs [1, 6] | % Visual Injury BRSAG Obs ([1]; quinclorac 50 g ai/ha alone) | % Visual Injury BRSAG Obs ([1]; quinclorac 100 g ai/ha alone) | % Visual Injury BRSAG Obs ([1]; quinclorac 200 g ai/ha alone) | % Visual Injury Obs ([2]; 50 g ai/ha) | % Visual Injury Obs ([2]; 100 g ai/ha) | % Visual Injury Obs ([2]; 200 g ai/ha) | Obs % visual injury ([2]; partner alone 50 g ai/ha) | Obs % visual injury ([2]; partner alone 100 g ai/ha) | Obs % visual injury ([2]; partner alone 200 g ai/ha) | % Visual Injury BRSJU Obs [2, 6] | % Visual Injury BRSJU Obs ([2]; quinclorac 50 g ai/ha alone) | % Visual Injury BRSJU Obs ([2]; quinclorac 100 g ai/ha alone) | % Visual Injury BRSJU Obs ([2]; quinclorac 200 g ai/ha alone) | % Visual Injury Obs ([3]; 50 g ai/ha) | % Visual Injury Obs ([3]; 100 g ai/ha) | % Visual Injury Obs ([3]; 200 g ai/ha) | Obs % visual injury ([3]; partner alone 50 g ai/ha) | Obs % visual injury ([3]; partner alone 100 g ai/ha) | Obs % visual injury ([3]; partner alone 200 g ai/ha) | % Visual Injury BRSNN Obs [3, 6] | % Visual Injury BRSNN Obs ([3]; quinclorac 50 g ai/ha alone) | % Visual Injury BRSNN Obs ([3]; quinclorac 100 g ai/ha alone) | % Visual Injury BRSNN Obs ([3]; quinclorac 200 g ai/ha alone) | % Visual Injury Obs ([4]; 50 g ai/ha) | % Visual Injury Obs ([4]; 100 g ai/ha) | % Visual Injury Obs ([4]; 200 g ai/ha) | Obs % visual injury ([4]; partner alone 50 g ai/ha) | Obs % visual injury ([4]; partner alone 100 g ai/ha) | Obs % visual injury ([4]; partner alone 200 g ai/ha) | % Visual Injury BRSNW Obs [4, 6] | % Visual Injury BRSNW Obs ([4]; quinclorac 50 g ai/ha alone) | % Visual Injury BRSNW Obs ([4]; quinclorac 100 g ai/ha alone) | % Visual Injury BRSNW Obs ([4]; quinclorac 200 g ai/ha alone) | % Visual Injury Obs ([5]; 50 g ai/ha) | % Visual Injury Obs ([5]; 100 g ai/ha) | % Visual Injury Obs ([5]; 200 g ai/ha) | Obs % visual injury ([5]; partner alone 50 g ai/ha) | Obs % visual injury ([5]; partner alone 100 g ai/ha) | Obs % visual injury ([5]; partner alone 200 g ai/ha) | % Visual Injury RR-BRSNN Obs [5, 6] | % Visual Injury RR-BRSNN Obs ([5]; quinclorac 50 g ai/ha alone) | % Visual Injury RR-BRSNN Obs ([5]; quinclorac 100 g ai/ha alone) | % Visual Injury RR-BRSNN Obs ([5]; quinclorac 200 g ai/ha alone)
